Tests used:
cellular ATM activity = cellular ATM activity (Homo sapiens (Human), UniProt Q13315); experiment: Inhibition of cellular ATM activity: etoposide-stimulated KAP1 phosphorylation in U20S cells; type: cell-based; details: 100 μM etoposide, 60 min, read-out: ATM CELL IC50
Procedure: Inhibition of cellular ATM activity was determined by changes in etoposide-stimulated KAP1 phosphorylation, based on the work of Guo et al. 2014.
Cryopreserved U20S cells were plated overnight at 6 k cells/well in black walled, clear bottomed 384 well plates (Greiner Bio One 781090). After overnight incubation (37 C, 5% CO2), cells were incubated with titrations of test compounds (0.3% DMSO final) in the presence of 100 μM etoposide (Sigma E1383) to stimulate ATM via induction of double stranded DNA breaks. After 60 min, cells were fixed using 100% cold methanol and incubated at −20° C. for 10 min. Fixed cells were washed with PBS containing 0.05% (v/v) Tween 20 (PBS-T) prior to a 60 minute blocking step in Odyssey blocking buffer (LI-COR Biosciences 92740000). Primary antibodies (1:1000 phosphorylated KAP1: Cell Signalling Technology 4127, 1:5000 total KAP1: Cell Signaling Technology 5868) were diluted in Odyssey blocking buffer and incubated overnight at 4° C., before addition of IRDye(R) conjugated secondary antibodies (LI-COR Biociences 926-32211, LI-COR Biosciences 926-68070) diluted 1:2000 in Odyssey blocking buffer for 60 min at room temperature and detection by LI-COR Odyssey (ImageStudio version 2.1.10, focus offset 4 mm, resolution 169 μm, lowest quality, intensities of 1 and 3 for 700 and 800 channels respectively). Immunoreactivity was quantified and the ratio of phosphorylated KAP1 calculated by dividing by the total KAP1 immunoreactivity. The percentage of inhibition was calculated for each concentration of compound using 100% (100 μM etoposide+30 μM KU-60019) and 0% effect controls (100 μM etoposide+DMSO). IC50 values represent the mean from at least two independent experiments.

[1] = biological target: Recombinant, full length human FLAG-tagged ATM (Homo sapiens (Human), UniProt Q13315); experiment: ATM ELISA for p53 S15 phosphorylation; type: biochemical; details: for IC50: 0.75 nM ATM, 25 nM p53, 10 μM ATP, 30 min at 20° C., read-out: ATM BIO IC50
Procedure: ATM: Recombinant, full length human FLAG-tagged ATM activity (Eurofins 14-933) was measured in an ELISA for p53 S15 phosphorylation, in a 384 well V-bottom polypropylene plate (Greiner Bio One 781280). Reactions contained 0.75 nM ATM, 25 nM full length myc tagged p53 (Eurofins 23-034), 10 μM UltraPure ATP (Promega V915B) and serial dilutions of inhibitors (0.1% DMSO final) in 25 mM HEPES, pH 7.5. 5 mM MgCl2, 2.5 mM MnCl2, 0.006% Brij-35, 0.5% glycerol, 0.1 mg/ml BSA, 0.5 mM DTT and were allowed to proceed for 30 min at 20° C. 70 mM EDTA final terminated the kinase reactions. An aliquot of the terminated reaction (25 μl) was transferred to a 384-well, high binding microplate (Greiner Bio One 781061), precoated with anti-myc capture antibody overnight (Millipore 05-724) diluted in 1:1000 in PBS, then blocked with Odyssey blocking buffer (LI-COR Biosciences 92740000) for 60 min at 20° C. The terminated reaction was allowed to capture for 2 h at 20° C. Phosphorylation was measured using an antibody specific to p53 S15 phosphorylation (1:5000 Abcam ab38497), anti-rabbit HRP (1:1000 Cell Signalling Technology, 7074) and TMB (ab171522). Antibodies were diluted in Odyssey blocking buffer and incubated for 60 min at 20° C. Three washes with PBS containing 0.05% (v/v) Tween 20 (PBS-T) were performed between each incubation. The TMB reaction was stopped with an equal volume of 0.2 M sulfuric acid and absorbance read at 450 nm on the Perkin Elmer Envision within 30 min of terminating the reaction. […] IC50 values represent the mean from at least two independent experiments.

Recombinant, full length human FLAG-tagged ATM, sequence (Q13315 whole entry): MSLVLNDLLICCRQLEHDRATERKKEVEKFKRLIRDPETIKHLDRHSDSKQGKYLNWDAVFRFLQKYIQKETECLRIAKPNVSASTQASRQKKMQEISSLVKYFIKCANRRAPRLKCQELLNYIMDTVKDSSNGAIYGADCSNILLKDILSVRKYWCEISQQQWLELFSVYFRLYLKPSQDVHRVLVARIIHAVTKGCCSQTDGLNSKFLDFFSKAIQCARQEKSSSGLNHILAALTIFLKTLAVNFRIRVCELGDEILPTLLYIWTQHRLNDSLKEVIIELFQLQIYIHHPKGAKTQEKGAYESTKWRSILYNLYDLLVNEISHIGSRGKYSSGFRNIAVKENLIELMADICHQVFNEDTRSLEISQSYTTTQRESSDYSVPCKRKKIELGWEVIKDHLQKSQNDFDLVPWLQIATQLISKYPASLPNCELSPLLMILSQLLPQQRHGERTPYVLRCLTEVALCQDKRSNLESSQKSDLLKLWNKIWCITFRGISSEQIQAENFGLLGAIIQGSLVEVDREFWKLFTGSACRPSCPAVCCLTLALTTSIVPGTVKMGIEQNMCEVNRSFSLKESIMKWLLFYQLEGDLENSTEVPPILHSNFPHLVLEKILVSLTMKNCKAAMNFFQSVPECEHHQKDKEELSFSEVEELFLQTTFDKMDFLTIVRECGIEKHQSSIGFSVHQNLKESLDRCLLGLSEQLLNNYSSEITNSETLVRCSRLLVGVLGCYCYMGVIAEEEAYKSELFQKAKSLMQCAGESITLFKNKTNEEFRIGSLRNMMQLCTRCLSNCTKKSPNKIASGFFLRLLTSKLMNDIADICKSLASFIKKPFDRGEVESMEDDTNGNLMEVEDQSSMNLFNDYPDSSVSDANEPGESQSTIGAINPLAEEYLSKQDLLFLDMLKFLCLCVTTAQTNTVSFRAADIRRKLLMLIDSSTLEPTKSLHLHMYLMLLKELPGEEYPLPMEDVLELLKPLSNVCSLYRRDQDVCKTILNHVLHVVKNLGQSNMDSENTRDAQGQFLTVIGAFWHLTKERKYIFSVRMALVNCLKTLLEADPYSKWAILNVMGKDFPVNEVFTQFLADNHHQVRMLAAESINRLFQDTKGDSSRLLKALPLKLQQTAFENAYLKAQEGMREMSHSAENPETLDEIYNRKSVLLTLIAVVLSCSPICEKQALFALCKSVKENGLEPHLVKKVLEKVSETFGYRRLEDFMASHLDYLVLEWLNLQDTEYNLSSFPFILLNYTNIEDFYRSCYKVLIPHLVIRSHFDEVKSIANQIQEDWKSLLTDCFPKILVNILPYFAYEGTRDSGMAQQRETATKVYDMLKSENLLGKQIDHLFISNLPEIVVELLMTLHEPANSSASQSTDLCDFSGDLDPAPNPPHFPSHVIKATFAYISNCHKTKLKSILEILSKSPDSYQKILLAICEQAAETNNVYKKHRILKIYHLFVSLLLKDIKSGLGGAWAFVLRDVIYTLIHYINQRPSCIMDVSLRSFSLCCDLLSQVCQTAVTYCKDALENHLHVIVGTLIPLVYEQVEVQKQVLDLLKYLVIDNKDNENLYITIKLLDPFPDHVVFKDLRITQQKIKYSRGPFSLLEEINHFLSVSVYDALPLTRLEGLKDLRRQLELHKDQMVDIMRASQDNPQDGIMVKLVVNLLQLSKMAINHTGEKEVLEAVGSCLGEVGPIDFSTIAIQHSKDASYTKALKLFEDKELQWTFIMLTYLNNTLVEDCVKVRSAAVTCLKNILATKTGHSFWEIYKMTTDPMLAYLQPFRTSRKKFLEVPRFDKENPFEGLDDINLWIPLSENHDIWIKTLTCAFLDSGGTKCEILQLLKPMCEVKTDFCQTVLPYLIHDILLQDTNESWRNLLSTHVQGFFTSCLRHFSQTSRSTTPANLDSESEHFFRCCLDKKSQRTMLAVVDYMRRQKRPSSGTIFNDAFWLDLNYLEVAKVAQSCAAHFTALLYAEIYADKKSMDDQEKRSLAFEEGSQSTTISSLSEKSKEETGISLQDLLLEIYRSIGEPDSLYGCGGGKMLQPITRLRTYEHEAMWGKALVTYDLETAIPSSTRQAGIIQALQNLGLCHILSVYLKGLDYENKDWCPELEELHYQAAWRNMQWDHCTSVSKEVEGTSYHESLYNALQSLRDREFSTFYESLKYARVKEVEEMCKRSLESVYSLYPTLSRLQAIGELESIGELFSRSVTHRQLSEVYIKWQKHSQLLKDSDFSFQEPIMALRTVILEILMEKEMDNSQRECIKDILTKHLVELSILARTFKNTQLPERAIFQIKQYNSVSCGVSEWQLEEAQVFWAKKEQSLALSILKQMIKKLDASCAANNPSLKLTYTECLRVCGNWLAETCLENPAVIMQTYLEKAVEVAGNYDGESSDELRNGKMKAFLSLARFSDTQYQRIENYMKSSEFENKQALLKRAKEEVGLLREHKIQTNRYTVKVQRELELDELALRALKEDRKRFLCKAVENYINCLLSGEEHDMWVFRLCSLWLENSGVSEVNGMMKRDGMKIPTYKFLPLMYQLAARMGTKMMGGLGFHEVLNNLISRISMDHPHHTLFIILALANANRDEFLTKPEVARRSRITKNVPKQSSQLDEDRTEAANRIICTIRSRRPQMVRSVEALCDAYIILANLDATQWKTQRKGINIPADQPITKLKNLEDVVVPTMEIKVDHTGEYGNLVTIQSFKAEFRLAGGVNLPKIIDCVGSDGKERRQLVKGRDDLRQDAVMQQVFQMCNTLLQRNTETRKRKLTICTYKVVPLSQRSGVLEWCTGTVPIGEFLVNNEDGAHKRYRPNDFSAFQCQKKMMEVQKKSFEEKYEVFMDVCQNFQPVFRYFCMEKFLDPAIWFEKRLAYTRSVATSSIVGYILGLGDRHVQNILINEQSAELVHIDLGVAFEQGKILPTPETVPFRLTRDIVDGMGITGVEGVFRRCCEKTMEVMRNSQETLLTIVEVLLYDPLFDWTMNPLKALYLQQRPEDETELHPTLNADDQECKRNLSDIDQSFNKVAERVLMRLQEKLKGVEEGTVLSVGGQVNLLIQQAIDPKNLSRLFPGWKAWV
cellular ATM activity, sequence (Q13315 whole entry): as above

SMILES | IC50 (cellular ATM activity) | IC50 [1] | biological activity in the biochemical assay ([1]; qualitative statement used for stereochemical assignment)
COc1ccccc1C[C@H]1[C@H]2C[C@H]2CN1c1cc(N2CCOCC2)cc(=O)[nH]1 [Example 128] | 711 nM | 14.7 nM | –
COc1ccc(F)cc1C[C@H]1CCCCCN1c1cc(N2CCOCC2)cc(=O)[nH]1 [Example 86] | 1380 nM | 65 nM | –
C[C@@H]1CN(c2cc(N3[C@@H]4CC[C@@H](C4)[C@@H]3Cc3ccccc3)[nH]c(=O)c2)CCO1 [Example 117, 6-((1R,3S,4S)-3-benzyl-2-azabicyclo[2.2.1]heptan-2-yl)-4-((R)-2-methylmorpholino) pyridin-2(1H)-one] | 684 nM | 72.8 nM | –
O=c1cc(N2CCOCC2)cc(N2CCC[C@@H]2Cc2cccc(OC3CCOCC3)c2)[nH]1 [Example 146, (R)-4-morpholino-6-(2-(3-((tetrahydro-2H-pyran-4-yl)oxy)benzyl)pyrrolidin-1-yl)pyridin-2(1H)-one] | 1860 nM | 74.2 nM | –
COC[C@@H](C)Oc1ccc(C[C@H]2CCCN2c2cc(N3CCOCC3)cc(=O)[nH]2)cc1 [Example 145, 6-((R)-2-(4-(((R)-1-methoxypropan-2-yl)oxy)benzyl)pyrrolidin-1-yl)-4-morpholinopyridin-2(1H)-one] | 2030 nM | 65.6 nM | –
O=c1cc(N2CCOCC2)cc(N2C[C@H]3CCC[C@H]3[C@@H]2Cc2ccccc2)[nH]1 [Example 123] | 861 nM | 21.2 nM | –
O=c1cc(N2CCOCC2)cc(N2C[C@H]3C[C@H]3[C@@H]2Cc2ccccc2)[nH]1 [Example 43, 6-((1R,2S,5S)-2-benzyl-3-azabicyclo[3.1.0]hexan-3-yl)-4-morpholinopyridin-2(1H)-one] | 293 nM | 9.6 nM | –
O=c1cc(N2CCOCC2)cc(N2CC(F)(F)C[C@@H]2Cc2ccccc2)[nH]1 [Example 102, (S)-6-(2-benzyl-4,4-difluoropyrrolidin-1-yl)-4-morpholinopyridin-2(1H)-one] | 2220 nM | 39.6 nM | –
COc1ccccc1C[C@H]1CCCCCN1c1cc(N2CCOCC2)cc(=O)[nH]1 [Example 27, (R)-6-(2-(2-methoxybenzyl)azepan-1-yl)-4-morpholinopyridin-2(1H)-one] | 501 nM | 16.6 nM | –
O=c1cc(N2CCOCC2)cc(N2CCCCC[C@@H]2Cc2cccc3c2OCO3)[nH]1 [Example 70, (R)-6-(2-(benzo[d][1,3]dioxol-4-ylmethyl)azepan-1-yl)-4-morpholinopyridin-2(1H)-one] | 274 nM | 2.4 nM | –
O=c1cc(N2CCOCC2)cc(N2CCCCC[C@@H]2Cc2ccccn2)[nH]1 [Example 33, (R)-4-morpholino-6-(2-(pyridin-2-ylmethyl)azepan-1-yl)pyridin-2(1H)-one] | 1780 nM | 92.4 nM | –
Cc1ccc(C[C@H]2CCCN2c2nc(N3CCOCC3)cc(=O)[nH]2)cc1 [Example 186] | 852 nM | 14.4 nM | –
COc1ccc(C[C@H]2CCCCCN2c2cc(N3CCOCC3)cc(=O)[nH]2)cc1 [Example 29, 6-[(2R)-2-[(4-methoxyphenyl)methyl]azepan-1-yl]-4-morpholino-1H-pyridin-2-one] | 371 nM | 32.5 nM | –
O=c1cc(N2CCOCC2)cc(N2CC[C@@H](F)[C@@H]2Cc2ccccc2)[nH]1 [Example 96, 6-((2S,3R)-2-benzyl-3-fluoropyrrolidin-1-yl)-4-morpholinopyridin-2(1H)-one] | 270 nM | 5.5 nM | –
Cc1ccccc1C[C@H]1CCCCCN1c1cc(N2CCOCC2)cc(=O)[nH]1 [Example 25, (R)-6-(2-(2-methylbenzyl)azepan-1-yl)-4-morpholinopyridin-2(1H)-one] | 530 nM | 13.7 nM | –
Cn1c(N2CCC[C@@H]2Cc2ccccc2)nc(N2CCOCC2)cc1=O [Example 176, (R)-2-(2-benzylpyrrolidin-1-yl)-3-methyl-6-morpholinopyrimidin-4(3H)-one] | 462 nM | 5.1 nM | –
CO[C@@H]1CCN(c2cc(N3CCOCC3)cc(=O)[nH]2)[C@H]1Cc1ccccc1 [Example 88, 6-((2S,3R)-2-benzyl-3-methoxypyrrolidin-1-yl)-4-morpholinopyridin-2(1H)-one] | 1660 nM | 53 nM | –
COc1cccc(C[C@H]2CCCCCN2c2nc(N3CCOCC3)cc(=O)[nH]2)c1 [Example 203] | 427 nM | 1.9 nM | –
O=c1cc(N2CCOCC2)cc(N2CCCCC[C@@H]2Cc2ccc(F)cc2)[nH]1 [Example 52, (R)-6-(2-(4-fluorobenzyl)azepan-1-yl)-4-morpholino pyridin-2(1H)-one] | 839 nM | 35.3 nM | –
O=c1cc(N2CCOCC2)cc(N2CCC[C@H]2Cc2ccccc2)[nH]1 [Example 2, (S)-6-(2-benzylpyrrolidin-1-yl)-4-morpholinopyridin-2(1H)-one] | – | – | lack of biological activity

Now from value to compound:

IC50 (cellular ATM activity) | IC50 [1] | biological activity in the biochemical assay ([1]; qualitative statement used for stereochemical assignment) | SMILES
797 nM | 39.6 nM | – | O=c1cc(N2CCOCC2)nc(N2CCCCC[C@@H]2Cc2ccccc2Cl)[nH]1 [Example 205]
1020 nM | 24.6 nM | – | C[C@@H]1CN(c2cc(=O)[nH]c(N3CCCCC[C@@H]3Cc3cccs3)n2)CCO1 [Example 286, 6-((R)-2-methylmorpholino)-2-((R)-2-(thiophen-2-ylmethyl)azepan-1-yl)pyrimidin-4(3H)-one]
2140 nM | 24.1 nM | – | C[C@@H]1CN(c2cc(=O)[nH]c(N3CCC[C@@H]3Cc3ccccc3)n2)CCO1 [Example 271, 2-((R)-2-benzylpyrrolidin-1-yl)-6-((R)-2-methylmorpholino)pyrimidin-4(3H)-one]
134 nM | 1.1 nM | – | O=c1cc(N2CCOCC2)nc(N2C[C@H]3C[C@H]3[C@@H]2Cc2ccccc2)[nH]1 [Example 213]
512 nM | 26.3 nM | – | O=c1cc(N2CCOCC2)nc(N2CCCCC[C@@H]2Cc2cccc(F)c2F)[nH]1 [Example 223]
436 nM | 5.3 nM | – | C[C@H]1CCCN(c2nc(N3CCOCC3)cc(=O)[nH]2)[C@@H](Cc2ccc(F)cc2)C1 [Example 235]
499 nM | 7.1 nM | – | COc1ccccc1C[C@H]1[C@H](C)CCN1c1nc(N2CCOCC2)cc(=O)[nH]1 [Example 217]
627 nM | 34.9 nM | – | C[C@@H]1CN(c2cc(=O)[nH]c(N3CCC[C@@H]3Cc3ccc(F)cc3)n2)CCO1 [Example 281, 2-[(2R)-2-[(4-fluorophenyl)methyl]pyrrolidin-1-yl]-4-[(2R)-2-methylmorpholin-4-yl]-1H-pyrimidin-6-one]
1560 nM | 34.5 nM | – | CC1COCCN1c1cc(=O)[nH]c(N2CCCC2Cc2ccccc2)n1 (single isomer, unassigned) [Example 339, 2-(2-benzylpyrrolidin-1-yl)-6-(3-methylmorpholino)pyrimidin-4(3H)-one]
881 nM | 71.2 nM | – | COc1cccc(C[C@H]2CCCCCN2c2nc(N3CCOCC3)cc(=O)[nH]2)c1OC [Example 230]
423 nM | 20.9 nM | – | C[C@@H]1CN(c2cc(=O)[nH]c(N3CC[C@@H](C)[C@@H]3Cc3ccccc3)n2)CCO1 [Example 294, 2-((2S,3R)-2-benzyl-3-methylpyrrolidin-1-yl)-6-((R)-2-methylmorpholino)pyrimidin-4(3H)-one]
569 nM | 39 nM | – | C[C@@H]1CN(c2cc(=O)[nH]c(N3CCCCC[C@@H]3Cc3cccc4c3OCC4)n2)CCO1 [Example 305, 2-((R)-2-((2,3-dihydrobenzofuran-7-yl)methyl)azepan-1-yl)-6-((R)-2-methylmorpholino)pyrimidin-4(3H)-one]
